This passage reports speed of sound results from the NIST ThermoML archive (doi:10.1016/j.jct.2016.01.028).

Numbers after ± are expanded uncertainties.

The conditions of this data set: 102 kPa, Liquid, Frequency=5 MHz, Single path-length method.

Take `CCCCC(=O)[O-].C[NH2+]CCO` [2-hydroxy-N-methylethanaminium pentanoate]: the speed of sound – broadly, how fast a sound wave travels through the sample – (293.15 K) came to 1537 ± 2.6 m/s; the speed of sound (298.15 K) amounted to 1516.3 ± 2.6 m/s; the speed of sound (303.15 K) was 1503.7 ± 2.6 m/s; the speed of sound (308.15 K) was found to be 1486.5 ± 2.6 m/s; the speed of sound (313.15 K) is reported as 1471 ± 2.6 m/s; the speed of sound (318.15 K) is reported as 1457 ± 2.6 m/s. Also, the speed of sound by setting is: (323.15 K) 1440 ± 2.6 m/s; (328.15 K) 1424.6 ± 2.6 m/s; (333.15 K) 1412.8 ± 2.6 m/s; (338.15 K) 1397.1 ± 2.6 m/s; (343.15 K) 1381.9 ± 2.6 m/s.
Take `CCCC(=O)[O-].C[NH2+]CCO` [N-methyl-2-hydroxyethylammonium butanoate]: the speed of sound worked out at 1576.8 ± 2.6 m/s (293.15 K); 1562.9 ± 2.6 m/s (298.15 K); 1548 ± 2.6 m/s (303.15 K); 1529.7 ± 2.6 m/s (308.15 K); 1511.9 ± 2.6 m/s (313.15 K); 1499.4 ± 2.6 m/s (318.15 K). Further, the speed of sound reads like this: (323.15 K) 1481.3 ± 2.6 m/s; (328.15 K) 1467.2 ± 2.6 m/s; (333.15 K) 1451.2 ± 2.6 m/s; (338.15 K) 1436.7 ± 2.6 m/s; (343.15 K) 1419.4 ± 2.6 m/s.
